Data: ChEMBL document CHEMBL1201862, “PubChem BioAssay data set” (2004)
Blank lines part the entries; values can stand above or below the compound they belong to. Active and inactive are the calls of the source.

Assays:
[1] = target: T1, Polyadenylate-binding protein 1 (Homo sapiens, UniProt P11940); assay: MLLE domain peptide-binding blockers, IC50 – biochemical, fluorescence polarization, FITC-PAM2 peptide, dose response (AID 602259); format: functional; conditions: read-out: IC50_Mean
[2] = target: T1, Polyadenylate-binding protein 1; assay: MLLE binding blockers, Cy5 peptide tracer – biochemical, fluorescence polarization, Cy5-PAM2 peptide, secondary, miRNA deadenylation inhibitor project, dose response (AID 602260); format: functional; conditions: read-out: IC50_Mean
[3] = target: T2, Microphthalmia-associated transcription factor (Homo sapiens, UniProt O75030); assay: reducers of TRPM1 reporter luminescence, concentration series – cell-based, SK-MEL-5, cherry-picked, set 3, MITF inhibitor project, dose response (AID 493073); format: functional;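 note: SK-MEL-5 melanoma cells with luciferase driven by the MITF target TRPM1 promoter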
T2 sequence (O75030 whole entry): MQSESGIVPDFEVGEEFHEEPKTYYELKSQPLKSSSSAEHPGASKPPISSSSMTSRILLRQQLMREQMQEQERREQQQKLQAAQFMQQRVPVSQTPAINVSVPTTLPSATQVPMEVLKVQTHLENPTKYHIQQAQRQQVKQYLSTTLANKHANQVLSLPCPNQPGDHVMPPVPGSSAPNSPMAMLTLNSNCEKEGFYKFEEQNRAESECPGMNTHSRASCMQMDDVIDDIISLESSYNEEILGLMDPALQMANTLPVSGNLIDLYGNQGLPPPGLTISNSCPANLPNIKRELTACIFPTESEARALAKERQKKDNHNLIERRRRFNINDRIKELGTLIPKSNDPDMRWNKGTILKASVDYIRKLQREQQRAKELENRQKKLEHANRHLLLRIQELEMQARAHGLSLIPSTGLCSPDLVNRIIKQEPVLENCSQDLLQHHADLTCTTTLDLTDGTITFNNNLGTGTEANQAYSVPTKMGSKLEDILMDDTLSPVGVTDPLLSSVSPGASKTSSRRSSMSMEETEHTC

Vero = assay: viability of Vero cells under compound – cytotoxicity control for flavivirus capping enzyme inhibitors (AID 588742); format: functional; conditions: Chlorocebus sabaeus
Genome polyprotein = Genome polyprotein (dengue virus type 2, UniProt P29990); assay: flavivirus cap methylation enzyme inhibition – biochemical, confirmation dose response, primary screen (AID 588689); format: functional
Genome polyprotein, sequence (P29990 2492-3391 limits assumed): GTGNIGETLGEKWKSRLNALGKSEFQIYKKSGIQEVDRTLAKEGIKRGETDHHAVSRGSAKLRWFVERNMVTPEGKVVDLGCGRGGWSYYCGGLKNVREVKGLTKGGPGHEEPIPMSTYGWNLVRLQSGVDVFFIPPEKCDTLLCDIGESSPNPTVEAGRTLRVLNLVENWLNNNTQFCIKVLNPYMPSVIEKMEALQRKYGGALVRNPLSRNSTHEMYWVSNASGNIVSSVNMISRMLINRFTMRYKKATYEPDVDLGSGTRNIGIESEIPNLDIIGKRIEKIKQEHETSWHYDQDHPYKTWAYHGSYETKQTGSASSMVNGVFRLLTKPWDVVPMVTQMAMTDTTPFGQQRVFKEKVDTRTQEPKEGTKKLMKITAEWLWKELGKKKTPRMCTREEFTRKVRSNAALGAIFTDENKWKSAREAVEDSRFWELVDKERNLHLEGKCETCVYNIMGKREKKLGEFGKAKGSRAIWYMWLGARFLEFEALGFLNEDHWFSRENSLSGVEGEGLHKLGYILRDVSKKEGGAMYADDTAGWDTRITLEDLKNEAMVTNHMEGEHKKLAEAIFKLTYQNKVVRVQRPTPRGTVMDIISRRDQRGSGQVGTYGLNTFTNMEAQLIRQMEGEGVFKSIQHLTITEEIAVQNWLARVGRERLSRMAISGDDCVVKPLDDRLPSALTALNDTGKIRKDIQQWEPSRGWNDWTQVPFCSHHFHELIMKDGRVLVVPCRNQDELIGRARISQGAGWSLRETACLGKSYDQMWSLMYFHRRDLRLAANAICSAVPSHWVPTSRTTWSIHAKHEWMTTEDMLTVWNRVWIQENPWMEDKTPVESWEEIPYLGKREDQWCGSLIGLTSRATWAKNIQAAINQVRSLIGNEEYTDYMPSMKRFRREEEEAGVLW

HeLa = assay: ATP-based viability loss in HeLa cells – cell-based, CellTiter-Glo luminescence, cherry-pick samples, cytotoxicity control for MITF activator project, dose response (AID 540259); format: functional; conditions: Homo sapiens
Protein Wnt-3a = Protein Wnt-3a (Mus musculus, UniProt P27467); assay: antagonism of Wnt3a pathway luciferase reporter – Wnt-LIGHT cells, luminescence, selectivity assay for Gli-SUFU antagonist project, dose response (AID 651570); format: functional; conditions: read-out: IC50_Mean;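 note: Wnt-LIGHT reporter cells stimulated with conditioned medium from Wnt3a-producing cells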
Protein Wnt-3a, sequence (P27467 whole entry): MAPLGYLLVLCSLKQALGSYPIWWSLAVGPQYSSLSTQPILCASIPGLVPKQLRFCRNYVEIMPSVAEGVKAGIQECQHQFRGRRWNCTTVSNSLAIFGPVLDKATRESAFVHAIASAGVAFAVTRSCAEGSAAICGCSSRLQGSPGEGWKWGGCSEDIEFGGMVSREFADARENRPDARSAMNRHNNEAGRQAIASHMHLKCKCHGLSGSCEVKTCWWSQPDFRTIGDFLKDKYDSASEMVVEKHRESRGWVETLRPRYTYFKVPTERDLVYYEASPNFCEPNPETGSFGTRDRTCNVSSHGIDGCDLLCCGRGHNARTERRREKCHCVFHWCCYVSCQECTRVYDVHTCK

[4] = target: T3, Short transient receptor potential channel 4 (Mus musculus, UniProt Q9QUQ5); assay: block of DAMGO-driven TRPC4 calcium entry – cell-based, HEK293 TRPC4/mu-opioid, Fluo-4 calcium, dose response (AID 434942); format: functional;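 note: potency of inhibitors blocking the TRPC4 calcium response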
T3 sequence (Q9QUQ5 whole entry): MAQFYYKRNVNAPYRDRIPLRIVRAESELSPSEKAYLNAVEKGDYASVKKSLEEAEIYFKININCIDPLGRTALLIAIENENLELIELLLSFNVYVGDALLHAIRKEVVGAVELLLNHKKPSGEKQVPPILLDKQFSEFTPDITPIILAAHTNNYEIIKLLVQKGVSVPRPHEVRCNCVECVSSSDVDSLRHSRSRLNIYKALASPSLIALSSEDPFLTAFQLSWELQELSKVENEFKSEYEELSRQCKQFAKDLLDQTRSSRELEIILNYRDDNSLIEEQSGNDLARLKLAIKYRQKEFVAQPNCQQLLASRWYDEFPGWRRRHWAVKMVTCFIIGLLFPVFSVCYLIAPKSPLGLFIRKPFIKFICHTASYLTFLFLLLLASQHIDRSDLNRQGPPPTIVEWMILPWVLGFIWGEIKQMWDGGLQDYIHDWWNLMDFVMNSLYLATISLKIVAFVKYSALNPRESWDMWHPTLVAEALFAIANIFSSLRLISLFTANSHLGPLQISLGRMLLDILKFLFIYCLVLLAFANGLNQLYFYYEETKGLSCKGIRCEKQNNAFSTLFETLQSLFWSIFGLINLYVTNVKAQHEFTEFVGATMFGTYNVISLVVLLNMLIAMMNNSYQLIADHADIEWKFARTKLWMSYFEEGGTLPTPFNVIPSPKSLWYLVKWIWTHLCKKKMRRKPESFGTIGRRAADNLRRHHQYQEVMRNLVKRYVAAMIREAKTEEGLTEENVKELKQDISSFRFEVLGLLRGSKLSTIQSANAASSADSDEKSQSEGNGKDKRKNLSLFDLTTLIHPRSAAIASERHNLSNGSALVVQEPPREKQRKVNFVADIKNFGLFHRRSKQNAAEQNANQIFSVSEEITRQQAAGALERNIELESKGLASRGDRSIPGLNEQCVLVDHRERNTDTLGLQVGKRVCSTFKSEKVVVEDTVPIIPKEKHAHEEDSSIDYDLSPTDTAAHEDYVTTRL

Leucine aminopeptidase = target: T4, Leucine aminopeptidase (Plasmodium falciparum 3D7, UniProt Q8IL11); assay: P. falciparum M17LAP inhibitors, primary screen, biochemical, fluorogenic H-Leu-NHMec substrate, 1536-well (AID 1619); format: functional
T4 sequence (Q8IL11 whole entry): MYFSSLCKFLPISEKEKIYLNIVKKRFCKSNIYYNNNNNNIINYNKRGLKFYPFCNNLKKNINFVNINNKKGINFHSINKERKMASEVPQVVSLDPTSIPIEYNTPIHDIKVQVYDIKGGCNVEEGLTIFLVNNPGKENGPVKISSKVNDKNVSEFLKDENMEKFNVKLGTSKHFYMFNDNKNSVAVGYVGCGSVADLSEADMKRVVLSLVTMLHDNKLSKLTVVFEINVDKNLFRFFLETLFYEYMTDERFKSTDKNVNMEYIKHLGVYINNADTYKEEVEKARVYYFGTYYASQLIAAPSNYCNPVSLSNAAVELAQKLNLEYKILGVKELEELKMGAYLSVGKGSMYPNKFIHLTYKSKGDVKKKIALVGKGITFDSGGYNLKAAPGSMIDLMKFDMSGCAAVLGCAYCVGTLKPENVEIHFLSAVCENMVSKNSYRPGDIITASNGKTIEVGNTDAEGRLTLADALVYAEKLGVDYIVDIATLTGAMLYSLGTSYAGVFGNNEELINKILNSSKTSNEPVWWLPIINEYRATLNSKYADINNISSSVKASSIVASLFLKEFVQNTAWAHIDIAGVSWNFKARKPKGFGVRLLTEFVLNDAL

Coagulation factor XII = target: T5, Coagulation factor XII (Homo sapiens, UniProt P00748); format: functional;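 note: activated factor XIIa alpha cleaving a fluorogenic AMC peptide substrate; inhibitor potency from loss of enzyme activity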
T5 sequence (P00748 whole entry): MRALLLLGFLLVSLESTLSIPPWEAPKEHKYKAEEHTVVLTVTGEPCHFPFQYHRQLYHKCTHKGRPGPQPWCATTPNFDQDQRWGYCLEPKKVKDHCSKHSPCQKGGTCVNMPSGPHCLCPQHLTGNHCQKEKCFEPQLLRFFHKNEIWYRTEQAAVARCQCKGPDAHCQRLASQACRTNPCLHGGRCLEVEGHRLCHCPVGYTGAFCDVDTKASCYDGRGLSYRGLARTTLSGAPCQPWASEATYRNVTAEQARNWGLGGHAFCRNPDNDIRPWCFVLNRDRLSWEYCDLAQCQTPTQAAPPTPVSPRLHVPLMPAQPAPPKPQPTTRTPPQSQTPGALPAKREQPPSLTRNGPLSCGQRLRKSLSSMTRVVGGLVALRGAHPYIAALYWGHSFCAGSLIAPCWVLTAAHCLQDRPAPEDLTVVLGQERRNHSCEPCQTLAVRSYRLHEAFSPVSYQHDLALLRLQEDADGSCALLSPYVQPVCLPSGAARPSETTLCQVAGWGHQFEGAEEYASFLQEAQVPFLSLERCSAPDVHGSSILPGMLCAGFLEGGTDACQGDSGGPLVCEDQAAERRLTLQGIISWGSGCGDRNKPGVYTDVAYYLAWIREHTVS

[5] = target: Induced myeloid leukemia cell differentiation protein Mcl-1 (Homo sapiens, UniProt Q07820); format: functional
Induced myeloid leukemia cell differentiation protein Mcl-1, sequence (Q07820 whole entry): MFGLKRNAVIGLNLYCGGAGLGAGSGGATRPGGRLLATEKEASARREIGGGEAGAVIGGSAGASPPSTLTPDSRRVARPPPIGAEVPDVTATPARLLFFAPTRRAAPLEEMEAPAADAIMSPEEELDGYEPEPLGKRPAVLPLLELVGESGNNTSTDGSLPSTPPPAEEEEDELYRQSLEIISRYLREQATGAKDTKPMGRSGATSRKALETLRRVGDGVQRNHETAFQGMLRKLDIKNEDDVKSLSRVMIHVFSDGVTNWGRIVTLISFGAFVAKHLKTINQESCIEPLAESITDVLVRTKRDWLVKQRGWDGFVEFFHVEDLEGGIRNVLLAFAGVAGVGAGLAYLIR

[6] = NIH-3T3 fibroblast cytotoxicity, dose response, cytotoxicity control, cell-based, fluorescence, Alamar Blue, secondary assay (AID 2327); format: functional;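 note: NIH-3T3 mouse fibroblasts cultured with fluconazole at 8 µg/mL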
[7] = fluconazole-exposed Candida albicans growth modulators – fluorescence, retest, confirmation (AID 2467); format: functional, cell-based
[8] = NIH3T3 cell viability loss – ATP luminescence, mouse fibroblasts, counter-screen, dose response (AID 2010); format: functional, cell-based;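 note: cells exposed to compound for about 90 hours before reading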
[9] = Trypanosoma cruzi growth suppression in host cells – NIH3T3 host cells, beta-gal luminescence, confirmation (AID 2044); format: functional, cell-based;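 note: intracellular parasites grown in NIH/3T3 mouse fibroblasts as host cells; luminescent beta-galactosidase reporter signal from transgenic T. cruzi replicating inside host cells; inhibitors lower the luminescence signal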
Prothrombin = Prothrombin (Homo sapiens, UniProt P00734); assay: Thrombin 1536 HTS Dose Response Confirmation. [Related pubchem assays: 1046 (Thrombin 1536 HTS; hits were confirmed in this assay)]; format: functional

T1 sequence (P11940 whole entry, the tested form may be a part): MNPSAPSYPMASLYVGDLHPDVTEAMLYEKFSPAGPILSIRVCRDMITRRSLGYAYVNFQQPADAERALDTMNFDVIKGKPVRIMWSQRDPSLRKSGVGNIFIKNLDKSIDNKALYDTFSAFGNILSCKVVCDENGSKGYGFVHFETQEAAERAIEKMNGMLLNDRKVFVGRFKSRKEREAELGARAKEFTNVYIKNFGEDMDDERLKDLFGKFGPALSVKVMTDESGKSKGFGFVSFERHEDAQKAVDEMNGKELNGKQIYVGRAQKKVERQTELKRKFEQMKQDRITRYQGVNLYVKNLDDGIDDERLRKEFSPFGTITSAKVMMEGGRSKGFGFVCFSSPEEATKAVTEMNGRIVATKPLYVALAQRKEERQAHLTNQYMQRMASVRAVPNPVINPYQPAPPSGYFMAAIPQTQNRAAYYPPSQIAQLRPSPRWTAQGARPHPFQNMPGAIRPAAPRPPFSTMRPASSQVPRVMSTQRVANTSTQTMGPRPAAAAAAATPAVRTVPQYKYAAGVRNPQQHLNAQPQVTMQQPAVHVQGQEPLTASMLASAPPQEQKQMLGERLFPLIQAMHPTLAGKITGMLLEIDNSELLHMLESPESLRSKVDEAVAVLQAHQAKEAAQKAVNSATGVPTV

Compound: N#Cc1c(NC(=O)C2CC(c3ccccc3O)=NO2)sc2c1CCC2 (configuration not stated)
IC50 [1]: > 66 µM (inactive)
IC50 [2]: > 66 µM (inactive)

Compound: Cc1ccc2nc3cc([N+](=O)[O-])cc([N+](=O)[O-])c3cc2c1
AC50 [3]: 8.46 µM (active)
CC50 (Vero): 6.28 µM (active)
IC50 (Genome polyprotein): 9.85 µM (active)

Compound: O=C(NC1CCCCCC1)c1c(O)nc2ccccc2c1O
AC50 (HeLa): 62.7 µM (active)

Compound: Cc1c(C(=O)Nc2ccccc2F)cnn1-c1ccccc1
AC50 (HeLa): 80.9 µM (active)

Compound: O=C(NCc1ccco1)C(=O)c1cn(CC(=O)N2CCCCCC2)c2ccccc12
IC50 (Leucine aminopeptidase): 11.6 µM (active)

Compound: O=C1N=C(Nc2ccccc2Cl)S/C1=C\c1cccc([N+](=O)[O-])c1O
CC50 (Vero): > 40 µM (active)
EC50 [6]: > 150 µM (inactive)
EC50 [7]: 7.16 µM (active)

Compound: O=C(Nc1ccc(Cl)c(Cl)c1)OCc1cccnc1
AC50 (HeLa): 39.5 µM (active)
EC50 [8]: > 30 µM (not active)
EC50 [9]: 2.5 µM (active)

Compound: Cc1ccccc1NC(=O)c1ccc(NC(=O)C2CC(=O)OC23CCCCC3)cc1 (configuration not stated)
IC50 (Prothrombin): > 50 µM (not active)

Continued, values first:

IC50 (Protein Wnt-3a): 43.1 µM (inactive)
EC50 [4]: 1.19 µM (active)
Compound: CNc1nc(NCc2ccccc2)c2ccccc2n1

IC50 (Coagulation factor XII): > 50 µM (inactive)
Compound: CCOc1ccc(-n2c(SCC(=O)Nc3cc(C)on3)nnc2-c2c[nH]c3ccccc23)cc1

IC50 [5]: 4.96 µM (active)
Compound: Cc1cc(O)n2nc(-c3ccsc3-n3c(C)ccc3C)cc2n1

IC50 [1]: > 66 µM (inactive)
IC50 [2]: > 66 µM (inactive)
Compound: O=C(CSc1nc2c(c(=O)n1-c1ccc(F)cc1)SCC2)NCc1ccco1

IC50 (Coagulation factor XII): > 50 µM (inactive)
Compound: CCOc1ccc(N(CC(=O)Nc2cccc(F)c2)S(=O)(=O)c2c(C)noc2C)cc1
